Test results: patent publication US12458605B2, “Lipid nanoparticle” (National University Corporation Hokkaido University, priority 2020, dated 2025)

Tests used:
[1] = Average particle size and PDI by dynamic light scattering (Zetasizer Nano ZS); assay type: physicochemical
Method: The average particle size (number-average value) and PDI in PBS(−) and zeta potential in 10 mM HEPES buffer solution (pH 7.4) of lipid nanoparticles were measured using “Zetasizer Nano ZS ZEN3600”, an analyzer utilizing dynamic light scattering (manufactured by Malvern).

F7 = assay: In vivo F7 knockdown, plasma F7 enzyme activity (BIOPHEN FVII), Balb/c mice; conditions: i.v. 0.025 mg siRNA/kg, plasma at 24 hours
Outline: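 Plasma factor VII activity was read 24 h after a single intravenous 0.025 mg siRNA/kg dose of siRNA-loaded lipid nanoparticles in 5-week-old female Balb/c mice. Activity is relative to untreated animals (100%) and normalised to the MC3 nanoparticle benchmark (=1).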

[2] = NlucmRNA-loaded LNP, 60:10:40:1
[3] = NlucmRNA-loaded LNP, lipid:DSPC:cholesterol:PEG-DMG 60:10:40:1
[4] = pFluc-loaded LNP, 50:10:40:1.5, N/P ratio 6
[5] = pFluc-loaded LNP, 50:10:40:1.5, N/P ratio 9

| PdI [1, 2] | ζ-Average (nm) [1, 3] [nm] | ζ-Average (nm) [1, 4] [nm] | ζ-Average (nm) [1, 5] [nm] | PdI ([1]; pFluc-loaded LNP, N/P ratio 6) | PdI ([1]; pFluc-loaded LNP, N/P ratio 9) | SMILES | F7 enzyme activity (%) (F7; untreated mice as 100%) | F7 enzyme activity (Ratio using MC3 as 1) (F7; relative plasma F7 activity of MC3 LNP as 1) |
| --- | --- | --- | --- | --- | --- | --- | --- | --- |
| 0.13 | 109.6 | 74.48 | 90.6 ± 7 | 0.11 | 0.19 ± 0.05 | CCCN(CCC)CCCCC(O)(CCCCCCOC(=O)C(CCC(C)CC(C)(C)C)C(C)CC(C)(C)C)CCCCCCOC(=O)C(CCC(C)CC(C)(C)C)C(C)CC(C)(C)C (centres unmarked) [CL4G6, 7-(4-(dipropylamino)butyl)-7-hydroxytridecan-1,13-diyl bis(2-(4.4-dimethylpentan-2-yl)-5,7,7-trimethyloctanoate)] | 7.6 |  |
| 0.162 | 92.52 | 109.4 | 105.7 ± 8.6 | 0.07 | 0.13 ± 0.02 | CCCCCCCCC(CCCCCC)C(=O)OCCCCCCC(O)(CCCCCCOC(=O)C(CCCCCC)CCCCCCCC)CCCCOC(=O)C1CCN(C)CC1 (centres unmarked) [CL15F6] |  | 1.52 |
